Measurements published in patent publication US5952008A, “Processes for preparing compositions for inhalation” (AB Astra, priority 1993, dated 1999).

Legend:
[1] = Inhalation of insulin/enhancer powder in rats, blood glucose monitored as measure of insulin uptake; format: in vivo, rat; conditions: for Enhancement of polypeptide (insulin) absorption in the lung, result in words: rat model; for Effect (enhancement of insulin uptake, blood glucose level): rats, inhaled powder
Protocol: Each of the compounds listed in Table I was tested for its ability to enhance uptake of a polypeptide (insulin) in a rat model.
Various forms of insulin were employed in the different trials: recombinant human, semisynthetic human or bovine. Each formulation was prepared as above, drying and processing the insulin/enhancer or insulin/enhancer/lactose solution to produce an inhalable powder. The powder was administered to rats by inhalation, and the blood glucose levels of the rats were subsequently monitored as a measure of insulin uptake. These levels were compared to the corresponding values obtained from rats which had inhaled insulin formulations without enhancer.

[2] = tested on: CaCo-2 epithelial cell monolayer; experiment: In vitro CaCo-2 epithelial cell monolayer transport assay; format: in vitro ADME; conditions: for Transport rate across the monolayer with enhancer, in words: up to 16 mM sodium caprate
Protocol: A standard in vitro assay utilizing an epithelial cell line, CaCo-2 (available through the American Type Culture Collection (ATCC), Rockville, Md., USA), has been developed to assess the ability of various enhancer compounds to promote transport of markers across an epithelial cell monolayer, as a model for the epithelial cell layer which functions in the lung to separate the alveolus from the pulmonary blood supply.
In this assay, the enhancer and polypeptide or other marker are dissolved in aqueous solution at various proportions and/or concentrations, and applied to the apical side of the cell monolayer. After 60 min incubation at 37° C. and 95% RH (relative humidity), the amount of the marker on the basolateral side of the cells is determined, e.g., by use of a radioactively labelled marker.

[3] = Enhancer:Insulin:lactose 4:4:92
[4] = Enhancer:Insulin:lactose 25:75:0
[5] = Enhancer:Insulin:lactose 2:4:94

| Molecule | Enhancement of polypeptide (insulin) absorption in the lung, result in words [1] | Effect (enhancement of insulin uptake, blood glucose level) [1, 3] | other results |
| --- | --- | --- | --- |
| C[C@H](CCC(=O)O)[C@H]1CC[C@H]2[C@@H]3[C@@H](O)C[C@@H]4C[C@H](O)CC[C@]4(C)[C@H]3CC[C@]12C [Sodium ursodeoxycholate] | effectively enhance polypeptide absorption in the lung | + |  |
| C[C@H](CCC(=O)NCC(=O)O)[C@H]1CC[C@H]2[C@@H]3[C@H](O)C[C@@H]4C[C@H](O)CC[C@]4(C)[C@H]3C[C@H](O)[C@]12C [Sodium glycocholate] | effectively enhance polypeptide absorption in the lung | + |  |
| albumin |  |  | Transport rate across the monolayer with enhancer, in words [2]: no increase in transport rate |
| CCCCCCCCCC(=O)[O-].[Na+] [Sodium caprate] | perform well |  | Effect (enhancement of insulin uptake, blood glucose level) ([1]; Enhancer:Insulin:lactose 10:90:0): (+); Effect (enhancement of insulin uptake, blood glucose level) ([1]; Enhancer:Insulin:lactose 17.5:82.5:0): (+); Effect (enhancement of insulin uptake, blood glucose level) [1, 4]: +; Amount of marker (mannitol) appearing on the basolateral side, insulin added ([2]; 1:3 sodium caprate:insulin by weight, FIG. 2): dependent upon the concentration of enhancer used; Amount of marker (mannitol) appearing on the basolateral side ([2]; sodium caprate up to 16 mM, 60 min, 37° C., FIG. 1): dependent upon the concentration of enhancer used |
| O=C(O)CN(CCN(CC(=O)O)CC(=O)O)CC(=O)O [EDTA, ethylenediaminetetraacetic acid] | ineffective |  |  |
| C[C@H](CCC(=O)NCCS(=O)(=O)O)[C@H]1CC[C@H]2[C@@H]3[C@H](O)C[C@@H]4C[C@H](O)CC[C@]4(C)[C@H]3C[C@H](O)[C@]12C [Sodium taurocholate] | effectively enhance polypeptide absorption in the lung | + |  |
| CCCCCCCC(=O)[O-].[Na+] [Sodium caprylate] |  |  | Effect (enhancement of insulin uptake, blood glucose level) [1, 4]: - |
| CCCCCCCCCCCCCC(=O)[O-].[Na+] [Sodium myristate] | perform well |  | Effect (enhancement of insulin uptake, blood glucose level) ([1]; Enhancer:Insulin:lactose 30:70:0): + |
| CCCCCCCCCCCC(=O)[O-].[Na+] [Sodium laurate] | perform well |  | Effect (enhancement of insulin uptake, blood glucose level) [1, 4]: + |
| cytochrome C |  |  | Transport rate across the monolayer with enhancer, in words [2]: no increase in transport rate |
| CCCCCCCCOC1O[C@H](CO)[C@@H](O)[C@H](O)[C@H]1O (stereo partly shown) [Octylglucopyranoside] | some absorption enhancing properties | (+) |  |
| Lysophosphatidylcholine | effective enhancer | + |  |
| CCCCCCCC/C=C\CCCCCCCC(=O)[O-].[K+] [Potassium oleate] |  | + |  |
| Dimethyl-β-cyclodextrin | absorption enhancing effect |  | Effect (enhancement of insulin uptake, blood glucose level) ([1]; Enhancer:Insulin:lactose 75:25:0): + |
| NC(=O)CC[C@@H]1NC(=O)[C@H](Cc2ccccc2)NC(=O)[C@H](Cc2ccc(O)cc2)NC(=O)[C@@H](N)CSSC[C@@H](C(=O)N2CCC[C@H]2C(=O)N[C@@H](CCCN=C(N)N)C(=O)NCC(N)=O)NC(=O)[C@H](CC(N)=O)NC1=O [vasopressin] |  |  | Increase in amount absorbed across the monolayer compared to absence of enhancer ([2]; 16 mM sodium caprate): 10-15 times |
| CCCCCCCCCC(=O)[O-].[K+] [Potassium caprate] | effective |  | Effect (enhancement of insulin uptake, blood glucose level) ([1]; Enhancer:Insulin:lactose 27:73:0): + |
| Lysine caprate | effective |  | Effect (enhancement of insulin uptake, blood glucose level) ([1]; Enhancer:Insulin:lactose 35:65:0): + |
| CC(=O)OC1CC2(C)C(CC(O)C3C4(C)CCC(O)C(C)C4CCC32C)C1=C(CCCC(C)C)C(=O)NCCS(=O)(=O)O (stereo not shown) [Sodium tarodihydrofusidate] | effectively enhance polypeptide absorption in the lung |  | Effect (enhancement of insulin uptake, blood glucose level) [1, 5]: + |
| CCCCCCCC(=O)OCC(COP(=O)([O-])OCC[N+](C)(C)C)OC(=O)CCCCCCC (stereo not shown) [Dioctanoylphosphatidylcholine] |  |  | Effect (enhancement of insulin uptake, blood glucose level) [1, 5]: (+); Effect (enhancement of insulin uptake, blood glucose level) ([1]; Enhancer:Insulin:lactose 4:4:94): - |
| carbonic anhydrase |  |  | Transport rate across the monolayer with enhancer, in words [2]: no increase in transport rate |
